For 19 compounds, EC50 and CC50 results are on record in patent US10954252B1, “Inhibitors of human immunodeficiency virus replication” (ViiV HEALTHCARE UK (NO.5) LIMITED, priority 2017, dated 2021).

Series [1] has as its system recombinant NL4-3 virus (nef section replaced with Renilla luciferase gene) in MT-2 cells. Briefly: HIV cell culture assay (antiviral activity, luciferase readout). To be noted: MT-2 cells infected for 4-5 days with recombinant NL4-3 luciferase virus. Type of series: cell-based. The gist of the method:
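Serially diluted compounds were present throughout a 4-5 day infection of MT-2 cells by recombinant NL4-3 whose nef region partly encodes Renilla luciferase. Antiviral activity was taken from live-cell luciferase signal, with the 50% effective concentration fitted by the exponential median effect equation.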

A short description of series [2]: Compound cytotoxicity, XTT-based colorimetric assay. Type of series: cell-based. The note with it: human, uninfected MT2 cells. The method in brief:
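XTT colorimetric read-out on day 4 gave CC50 values, using MT2 cells left uninfected but otherwise handled as in the antiviral assay.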

Structures are written as SMILES.

Consider `CS(=O)(=O)Nc1n[nH]c2c(-c3cc4[nH]ccc4nc3[C@H](Cc3cc(F)cc(F)c3)NC(=O)Cn3nc(C(F)F)c4c3C(F)(F)[C@@H]3C[C@H]43)ccc(Cl)c12` [Example 90, N—((S)-1-(6-(4-chloro-3-(methylsulfonamido)-1H-indazol-7-yl)-1H-pyrrolo[3,2-b]pyridin-5-yl)-2-(3,5-difluorophenyl)ethyl)-2-((3bS,4aR)-3-(difluoromethyl)-5,5-difluoro-3b,4,4a,5-tetrahydro-1H-cyclopropa[3,4]cyclopenta[1,2-c]pyrazol-1-yl)acetamide], for which the concentration for a half-maximal effect (EC50) in series [1] (Renilla, NL43, Table 1a) was determined as 1.48 nM. Besides, in series [2] (Table 1a, day 4, XTT), the CC50 at 4 days was over 10000 nM.

For `COc1c(F)cc2c(=O)n(-c3ccc(Cl)c4c(NS(C)(=O)=O)nn(C)c34)c(C(Cc3cc(F)cc(F)c3)NC(=O)Cn3nc(C(F)F)c4c3C(F)(F)[C@@H]3C[C@H]43)nc2c1F` (some centres unmarked) [Example 113], the EC50 in series [1] (Renilla, NL43, Table 1a) came out at 8.43 nM. Also, the CC50 at 4 days in series [2] (Table 1a, day 4, XTT) is over 1000 nM.

Regarding `CC(C)n1nc(NS(C)(=O)=O)c2c(Cl)ccc(-n3c([C@H](Cc4cc(F)cc(F)c4)NC(=O)Cn4nc(C(F)F)c5c4C(F)(F)[C@@H]4C[C@H]54)nc4ncccc4c3=O)c21` (mixture of isomers) [Example 43.2, N-[(1S)-1-{3-[4-chloro-3-methanesulfonamido-1-(propan-2-yl)-1H-indazol-7-yl]-4-oxo-3H,4H-pyrido[2,3-d]pyrimidin-2-yl}-2-(3,5-difluorophenyl)ethyl]-2-[(2S,4R)-9-(difluoromethyl)-5,5-difluoro-7,8-diazatricyclo[4.3.0.0^2,4]nona-1(6),8-dien-7-yl]acetamide], in series [1] (Renilla, NL43, Table 1a), the EC50 worked out at 0.132 nM. The compound also had a CC50 at 4 days in series [2] (Table 1a, day 4, XTT) of over 10000 nM.

As for `O=C(Cn1nc(C(F)F)c2c1C(F)(F)[C@@H]1C[C@H]21)N[C@@H](Cc1cc(F)cc(F)c1)c1nc2cn[nH]c2cc1-c1ccc(Cl)c(C(=O)NS(=O)(=O)C2CC2)c1` [Example 10.16, 2-Chloro-N-(cyclopropylsulfonyl)-5-(5-((S)-1-(2-((3bS,4aR)-3-(difluoromethyl)-5,5-difluoro-3b,4,4a,5-tetrahydro-1H-cyclopropa[3,4]cyclopenta[1,2-c]pyrazol-1-yl)acetamido)-2-(3,5-difluorophenyl)ethyl)-1H-pyrazolo[4,3-b]pyridin-6-yl)benzamide], in series [1] (Renilla, NL43, Table 1), the EC50 amounted to 340 nM. Moreover, the CC50 at 4 days in series [2] (Table 1, day 4, XTT) is over 10000 nM.

`Cn1nc(NS(C)(=O)=O)c2c(Cl)ccc(-n3c([C@H](Cc4cc(F)cc(F)c4)NC(=O)Cn4nc(C(F)F)c5c4C(F)(F)[C@@H]4C[C@H]54)nc4cccc(F)c4c3=O)c21` (single isomer, unassigned) [Example 19]: the EC50 in series [1] (Renilla, NL43, Table 1) was 130 nM. The compound further showed a CC50 at 4 days in series [2] (Table 1, day 4, XTT) of over 8000 nM.

For `CCOc1ccc2c(=O)n(-c3ccc(Cl)c4c(NS(C)(=O)=O)nn(C)c34)c([C@H](Cc3cc(F)cc(F)c3)NC(=O)Cn3ccc(C4CC4)n3)nc2n1` (single isomer, unassigned) [Example 59.1], the EC50 in series [1] (Renilla, NL43, Table 1a) amounted to 47 nM. This compound showed a CC50 at 4 days in series [2] (Table 1a, day 4, XTT) of over 1000 nM.

With `Cn1nc(NS(C)(=O)=O)c2c(Cl)ccc(-n3c([C@H](Cc4cc(F)cc(F)c4)NC(=O)Cn4nc(C(F)F)c5c4CCC5)nc4c(F)cc(F)cc4c3=O)c21` (single isomer, unassigned) [Example 99], the EC50 in series [1] (Table 1a) came to 17.8 nM. The compound further returned a CC50 at 4 days in series [2] (Table 1a, day 4, XTT) of over 1000 nM.

Take `NC(=O)c1cc(-n2c([C@H](Cc3cc(F)cc(F)c3)NC(=O)Cn3nc(C(F)F)c4c3C(F)(F)[C@@H]3C[C@H]43)nc3ncccc3c2=O)ccc1F` [Example 33, 5-{2-[(1S)-1-{2-[(2S,4R)-9-(difluoromethyl)-5,5-difluoro-7,8-diazatricyclo[4.3.0.0^2,4]nona-1(6),8-dien-7-yl]acetamido}-2-(3,5-difluorophenyl)ethyl]-4-oxo-3H,4H-pyrido[2,3-d]pyrimidin-3-yl}-2-fluorobenzamide]: the EC50 in series [1] (Renilla, NL43, Table 1a) was 3.92 nM. In series [2] (Table 1a, day 4, XTT), this compound registered a CC50 at 4 days of over 10000 nM.

As for `O=C(Cn1nc(C(F)F)c2c1C(F)(F)[C@@H]1C[C@H]21)N[C@@H](Cc1cc(F)cc(F)c1)c1nc2ncccc2c(=O)n1-c1ccc2scnc2c1` [Example 10.24], the half-maximal effective concentration (EC50) in series [1] (Renilla, NL43, Table 1) came out at 1.7 nM. In series [2] (Table 1, day 4, XTT), this compound gave a CC50 at 4 days of over 10000 nM.

For `CS(=O)(=O)NC(=O)c1cc(-c2cc3[nH]ncc3nc2[C@H](Cc2cc(F)cc(F)c2)NC(=O)Cn2nc(C(F)F)c3c2C(F)(F)[C@@H]2C[C@H]32)ccc1Cl` [Example 10.18, 2-Chloro-5-(5-((S)-1-(2-((3bS,4aR)-3-(difluoromethyl)-5,5-difluoro-3b,4,4a,5-tetrahydro-1H-cyclopropa[3,4]cyclopenta[1,2-c]pyrazol-1-yl)acetamido)-2-(3,5-difluorophenyl)ethyl)-1H-pyrazolo[4,3-b]pyridin-6-yl)-N-(methylsulfonyl)benzamide], the EC50 in series [1] (Renilla, NL43, Table 1) amounted to 670 nM. The 50% cytotoxic concentration (CC50) at 4 days in series [2] (Table 1, day 4, XTT) was over 10000 nM.

Turning to `Cn1nc(NS(C)(=O)=O)c2c(Cl)ccc(-n3c([C@H](Cc4cc(F)cc(F)c4)NC(=O)Cn4ccc(C5CC5)n4)nc4ccc(OC(F)(F)F)cc4c3=O)c21` (single isomer, unassigned) [Example 152], the EC50 in series [1] (Table 1a) was determined as 173 nM. The same compound registered a CC50 at 4 days in series [2] (Table 1a, day 4, XTT) of over 1000 nM.

Regarding `O=C(Cn1nc(C(F)F)c2c1C(F)(F)[C@@H]1C[C@H]21)N[C@@H](Cc1cc(F)cc(F)c1)c1nc2cn[nH]c2cc1-c1ccc(F)c(C(=O)NS(=O)(=O)C2CC2)c1` [Example 10.28, N-(cyclopropylsulfonyl)-5-(5-((S)-1-(2-((3bS,4aR)-3-(difluoromethyl)-5,5-difluoro-3b,4,4a,5-tetrahydro-1H-cyclopropa[3,4]cyclopenta[1,2-c]pyrazol-1-yl)acetamido)-2-(3,5-difluorophenyl)ethyl)-1H-pyrazolo[4,3-b]pyridin-6-yl)-2-fluorobenzamide], in series [1] (Renilla, NL43, Table 1), the EC50 turned out to be 510 nM. The compound further yielded a CC50 at 4 days in series [2] (Table 1, day 4, XTT) of over 10000 nM.

With `O=C(Cn1nc(C(F)F)c2c1C(F)(F)[C@@H]1C[C@H]21)N[C@@H](Cc1cc(F)cc(F)c1)c1nc2cn[nH]c2cc1-c1cccc(C(=O)O)c1` [Example 10.10, 3-(5-((S)-1-(2-((3bS,4aR)-3-(difluoromethyl)-5,5-difluoro-3b,4,4a,5-tetrahydro-1H-cyclopropa[3,4]cyclopenta[1,2-c]pyrazol-1-yl)acetamido)-2-(3,5-difluorophenyl)ethyl)-1H-pyrazolo[4,3-b]pyridin-6-yl)benzoic acid], the 50% effective concentration (EC50) in series [1] (Renilla, NL43, Table 1) is 140 nM. For the same compound, the CC50 at 4 days in series [2] (Table 1, day 4, XTT) was over 10000 nM.

For the compound `Cc1cc(C)c2c(=O)n(-c3ccc(Cl)c4c(NS(C)(=O)=O)nn(C)c34)c(C(Cc3cc(F)cc(F)c3)NC(=O)Cn3nc(C(F)F)c4c3C(F)(F)[C@@H]3C[C@H]43)nc2n1` (mixture of isomers) [Example 42.1], in series [1] (Renilla, NL43, Table 1a), the EC50 is 12 nM. The half-maximal cytotoxic concentration (CC50) at 4 days in series [2] (Table 1a, day 4, XTT) was over 10000 nM.

In the case of `Cn1nc(NS(C)(=O)=O)c2c(Cl)ccc(-c3cc4cc[nH]c4nc3[C@@H](Cc3cc(F)cc(F)c3)NC(=O)Cn3nc(C(F)F)c4c3C(F)(F)[C@@H]3C[C@H]43)c21` (single isomer, unassigned) [Example 87], in series [1] (Renilla, NL43, Table 1a), the EC50 was found to be 72.4 nM. This compound also registered a CC50 at 4 days in series [2] (Table 1a, day 4, XTT) of over 10000 nM.

As to `COC(=O)c1cc(-c2cc3[nH]ncc3nc2[C@H](Cc2cc(F)cc(F)c2)NC(=O)Cn2nc(C(F)F)c3c2C(F)(F)[C@@H]2C[C@H]32)ccc1Cl` [Example 10.9, Methyl 2-chloro-5-(5-((S)-1-(2-((3bS,4aR)-3-(difluoromethyl)-5,5-difluoro-3b,4,4a,5-tetrahydro-1H-cyclopropa[3,4]cyclopenta[1,2-c]pyrazol-1-yl)acetamido)-2-(3,5-difluorophenyl)ethyl)-1H-pyrazolo[4,3-b]pyridin-6-yl)benzoate], the concentration for a half-maximal effect (EC50) in series [1] (Renilla, NL43, Table 1) was 1080 nM. The same compound returned a CC50 at 4 days in series [2] (Table 1, day 4, XTT) of 8950 nM.

Turning to `CSc1nc2nc(C(Cc3cc(F)cc(F)c3)NC(=O)Cn3nc(C(F)F)c4c3C(F)(F)[C@@H]3C[C@H]43)c(-c3ccc(Cl)c4c(NS(C)(=O)=O)nn(C)c34)cc2s1` (stereo partly drawn) [Example 193, N-(1-(6-(4-chloro-1-methyl-3-(methylsulfonamido)-1H-indazol-7-yl)-2-(methylthio)thiazolo[4,5-b]pyridin-5-yl)-2-(3,5-difluorophenyl)ethyl)-2-((3bS,4aR)-3-(difluoromethyl)-5,5-difluoro-3b,4,4a,5-tetrahydro-1H-cyclopropa[3,4]cyclopenta[1,2-c]pyrazol-1-yl)acetamide], the concentration for a half-maximal effect (EC50) in series [1] (Renilla, NL43, Table 1a) was 0.18 nM. The compound further displayed a CC50 at 4 days in series [2] (Table 1a, day 4, XTT) of over 10000 nM.

As for `Cn1nc(NS(C)(=O)=O)c2c(Cl)ccc(-n3c([C@H](Cc4cc(F)cc(F)c4)NC(=O)Cn4nc(C(F)F)c5c4C(F)(F)[C@@H]4C[C@H]54)nc4cc(C(C)(C)S(C)(=O)=O)ccc4c3=O)c21` (mixture of isomers) [Example 207, N—((S)-1-(3-(4-chloro-1-methyl-3-(methylsulfonamido)-1H-indazol-7-yl)-7-(2-(methylsulfonyl)propan-2-yl)-4-oxo-3,4-dihydroquinazolin-2-yl)-2-(3,5-difluorophenyl)ethyl)-2-((3bS,4aR)-3-(difluoromethyl)-5,5-difluoro-3b,4,4a,5-tetrahydro-1H-cyclopropa[3,4]cyclopenta[1,2-c]pyrazol-1-yl)acetamide], the EC50 in series [1] (Table 1a) is 4.49 nM. In addition, in series [2] (Table 1a, day 4, XTT), the cytotoxic concentration (CC50) at 4 days is over 1000 nM.

In the case of `NS(=O)(=O)c1ccc(-c2cc3[nH]ncc3nc2[C@H](Cc2cc(F)cc(F)c2)NC(=O)Cn2nc(C(F)F)c3c2C(F)(F)[C@@H]2C[C@H]32)cc1` [Example 24, 2-((3bS,4aR)-3-(difluoromethyl)-5,5-difluoro-3b,4,4a,5-tetrahydro-1H-cyclopropa[3,4]cyclopenta[1,2-c]pyrazol-1-yl)-N—((S)-2-(3,5-difluorophenyl)-1-(6-(4-sulfamoylphenyl)-1H-pyrazolo[4,3-b]pyridin-5-yl)ethyl)acetamide], in series [1] (Renilla, NL43, Table 1a), the 50% effective concentration (EC50) came out at 1370 nM. In addition, in series [2] (Table 1a, day 4, XTT), the CC50 at 4 days was over 10000 nM.
